In brackets after ≈: the same amount, converted by molar mass.
What follows are compounds tested on Mycobacterium tuberculosis (assay: Antimycobacterial activity against Mycobacterium tuberculosis H37Rv by agar dilution method).
Type: functional

| SMILES | MIC |
| --- | --- |
| COc1ccc([C@H]2[C@@H]3CSCN3[C@@]3(C(=O)Nc4ccc([N+](=O)[O-])cc43)[C@@]23Cc2ccccc2C3=O)cc1 | 24.3 µg/mL (≈ 47.3 µM) |
| Cc1ccccc1[C@H]1[C@@H]2CSCN2[C@@]2(C(=O)Nc3ccccc32)[C@@]12Cc1ccccc1C2=O | > 55.2 µg/mL |
| O=C1Nc2ccccc2[C@]12N1CSC[C@H]1[C@H](c1ccc(F)cc1)[C@]21Cc2ccccc2C1=O | 13.7 µg/mL (≈ 30 µM) |
| O=C1Nc2ccc(Cl)cc2[C@]12N1CSC[C@H]1[C@H](c1cccs1)[C@]21Cc2ccccc2C1=O | 52.2 µg/mL (≈ 109 µM) |
| O=C1Nc2ccccc2[C@]12N1CSC[C@H]1[C@H](c1ccc(Cl)cc1)[C@]21Cc2ccccc2C1=O | 52.9 µg/mL (≈ 112 µM) |
| Cc1ccc([C@H]2[C@@H]3CSCN3[C@@]3(C(=O)Nc4ccc([N+](=O)[O-])cc43)[C@@]23Cc2ccccc2C3=O)cc1 | 25.1 µg/mL (≈ 50.4 µM) |
| O=C1Nc2ccc([N+](=O)[O-])cc2[C@]12N1CSC[C@H]1[C@H](c1ccc(F)cc1)[C@]21Cc2ccccc2C1=O | 3.1 µg/mL (≈ 6.18 µM) |
| Cc1ccc([C@H]2[C@@H]3CSCN3[C@@]3(C(=O)Nc4ccccc43)[C@@]23Cc2ccccc2C3=O)cc1 | > 55.2 µg/mL |
| CC[C@@H](CO)NCCN[C@@H](CC)CO [ETHAMBUTOL] | 7.6 µg/mL (≈ 37.2 µM) |
| O=C1Nc2ccccc2[C@]12N1CSC[C@H]1[C@H](c1ccccc1Cl)[C@]21Cc2ccccc2C1=O | 26.4 µg/mL (≈ 55.8 µM) |
| O=C1Nc2ccc(Cl)cc2[C@]12N1CSC[C@H]1[C@H](c1ccc(Br)cc1)[C@]21Cc2ccccc2C1=O | 11.3 µg/mL (≈ 20.5 µM) |
| Cc1ccccc1[C@H]1[C@@H]2CSCN2[C@@]2(C(=O)Nc3ccc(Cl)cc32)[C@@]12Cc1ccccc1C2=O | 25.7 µg/mL (≈ 52.8 µM) |
| COc1ccc([C@H]2[C@@H]3CSCN3[C@@]3(C(=O)Nc4ccccc43)[C@@]23Cc2ccccc2C3=O)cc1 | > 53.4 µg/mL |
| O=C1Nc2ccc([N+](=O)[O-])cc2[C@]12N1CSC[C@H]1[C@H](c1ccc(Cl)cc1)[C@]21Cc2ccccc2C1=O | 24.1 µg/mL (≈ 46.5 µM) |
| O=C1Nc2ccccc2[C@]12N1CSC[C@H]1[C@H](c1ccc([N+](=O)[O-])cc1)[C@]21Cc2ccccc2C1=O | 12.9 µg/mL (≈ 26.7 µM) |
| NNC(=O)c1ccncc1 [ISONIAZID] | 0.4 µg/mL (≈ 2.92 µM) |

| SMILES | MIC |
| --- | --- |
| COc1ccc([C@H]2[C@@H]3CSCN3[C@@]3(C(=O)Nc4ccc(Cl)cc43)[C@@]23Cc2ccccc2C3=O)cc1 | > 49.7 µg/mL |
| O=C1Nc2ccc([N+](=O)[O-])cc2[C@]12N1CSC[C@H]1[C@H](c1ccc([N+](=O)[O-])cc1)[C@]21Cc2ccccc2C1=O | 5.9 µg/mL (≈ 11.2 µM) |
| O=C1Nc2ccc([N+](=O)[O-])cc2[C@]12N1CSC[C@H]1[C@H](c1ccc(Br)cc1)[C@]21Cc2ccccc2C1=O | 11.1 µg/mL (≈ 19.7 µM) |
| O=C1Nc2ccc([N+](=O)[O-])cc2[C@]12N1CSC[C@H]1[C@H](c1cccc(Cl)c1Cl)[C@]21Cc2ccccc2C1=O | 2.8 µg/mL (≈ 5.07 µM) |
| O=C1Nc2ccc(Cl)cc2[C@]12N1CSC[C@H]1[C@H](c1ccc([N+](=O)[O-])cc1)[C@]21Cc2ccccc2C1=O | 12.1 µg/mL (≈ 23.4 µM) |
| O=C1Nc2ccc(Cl)cc2[C@]12N1CSC[C@H]1[C@H](c1ccccc1Cl)[C@]21Cc2ccccc2C1=O | 12.3 µg/mL (≈ 24.2 µM) |
| O=C1Nc2ccc(Cl)cc2[C@]12N1CSC[C@H]1[C@H](c1cccc(Cl)c1Cl)[C@]21Cc2ccccc2C1=O | 5.8 µg/mL (≈ 10.7 µM) |
| Cc1ccc([C@H]2[C@@H]3CSCN3[C@@]3(C(=O)Nc4ccc(Cl)cc43)[C@@]23Cc2ccccc2C3=O)cc1 | 51.3 µg/mL (≈ 105 µM) |
| O=C1Nc2ccc([N+](=O)[O-])cc2[C@]12N1CSC[C@H]1[C@H](c1ccccc1Cl)[C@]21Cc2ccccc2C1=O | 12.1 µg/mL (≈ 23.4 µM) |
| O=C1Nc2ccccc2[C@]12N1CSC[C@H]1[C@H](c1ccc(Br)cc1)[C@]21Cc2ccccc2C1=O | 24.2 µg/mL (≈ 46.8 µM) |
| O=C1Nc2ccccc2[C@]12N1CSC[C@H]1[C@H](c1cccs1)[C@]21Cc2ccccc2C1=O | 56.2 µg/mL (≈ 126 µM) |
| O=C1Nc2ccccc2[C@]12N1CSC[C@H]1[C@H](c1cccc(Cl)c1Cl)[C@]21Cc2ccccc2C1=O | 12.3 µg/mL (≈ 24.2 µM) |
| Cc1ccccc1[C@H]1[C@@H]2CSCN2[C@@]2(C(=O)Nc3ccc([N+](=O)[O-])cc32)[C@@]12Cc1ccccc1C2=O | 25.1 µg/mL (≈ 50.4 µM) |
| O=C1Nc2ccc(Cl)cc2[C@]12N1CSC[C@H]1[C@H](c1ccc(F)cc1)[C@]21Cc2ccccc2C1=O | 12.7 µg/mL (≈ 25.9 µM) |
| O=C1Nc2ccc(Cl)cc2[C@]12N1CSC[C@H]1[C@H](c1ccc(Cl)cc1)[C@]21Cc2ccccc2C1=O | 24.6 µg/mL (≈ 48.5 µM) |
| CO[C@H]1/C=C/O[C@@]2(C)Oc3c(C)c(O)c4c(O)c(c(/C=N/N5CCN(C)CC5)c(O)c4c3C2=O)NC(=O)/C(C)=C\C=C\[C@H](C)[C@H](O)[C@@H](C)[C@@H](O)[C@@H](C)[C@H](OC(C)=O)[C@@H]1C [RIFAMPIN] | 0.1 µg/mL (≈ 0.122 µM) |

From ChEMBL document CHEMBL1629481, “A regio- and stereoselective 1,3-dipolar cycloaddition for the synthesis of novel spiro-pyrrolothiazolyloxindoles and their antitubercular evaluation” (2010)
